This is an account of results in PubChem BioAssay AID248 (DTP/NCI, 2004).

In the test the test system is L1210 leukemia ip in BDF1 mice, survival T/C. In words: NCI In Vivo Anticancer Drug Screen. Data for tumor model L1210 Leukemia (intraperitoneal) in B6D2F1 (BDF1) mice. Conditions: endpoint: mean survival time, higher = longer survival. The method in brief:
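In this screen, tumor-bearing mice given compound are compared to those given vehicle, and their survival values are reported as a treated-to-control quotient.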

[1] abbreviates: dose: 100.0 mg/kg/injection, schedule: Q01DX001 (ip), vehicle: saline.
[2] abbreviates: dose: 200.0 mg/kg/injection, schedule: Q01DX001 (ip), vehicle: saline.
[3] abbreviates: dose: 400.0 mg/kg/injection, schedule: Q01DX001 (ip), vehicle: saline.
The mark [4] stands for this setting: dose: 100.0 mg/kg/injection, schedule: Q01DX009 (ip), vehicle: Klucel (hydroxypropylcellulose) (HPC).
Where [5] appears, read: dose: 100.0 mg/kg/injection, schedule: Q04DX003 (ip), vehicle: Klucel (hydroxypropylcellulose) (HPC).
[6] abbreviates: dose: 200.0 mg/kg/injection, schedule: Q01DX009 (ip), vehicle: Klucel (hydroxypropylcellulose) (HPC).
[7] abbreviates: dose: 200.0 mg/kg/injection, schedule: Q04DX003 (ip), vehicle: Klucel (hydroxypropylcellulose) (HPC).
The mark [8] stands for this setting: dose: 400.0 mg/kg/injection, schedule: Q04DX003 (ip), vehicle: Klucel (hydroxypropylcellulose) (HPC).
Setting [9] is: dose: 100.0 mg/kg/injection, schedule: Q01DX009 (ip), vehicle: saline with Tween-80.
Where [10] appears, read: dose: 100.0 mg/kg/injection, schedule: Q04DX003 (ip), vehicle: saline with Tween-80.
Setting [11] is: dose: 200.0 mg/kg/injection, schedule: Q01DX009 (ip), vehicle: saline with Tween-80.
[12] abbreviates: dose: 200.0 mg/kg/injection, schedule: Q01DX001 (ip), vehicle: other.
Where [13] appears, read: dose: 400.0 mg/kg/injection, schedule: Q01DX001 (ip), vehicle: other.
[14] abbreviates: dose: 50.0 mg/kg/injection, schedule: Q01DX009 (ip), vehicle: saline with Tween-80.

Values joined by “and” are separate entries in the source; they are usually repeats but may differ in a detail not shown here. Identical values can stand only once. Toxic doses and inconclusive results are not listed.

With `O=C(Nc1ccc([N+](=O)[O-])cc1)c1cc(N2CCOCC2)ccn1`, the T/C runs as follows: under setting [1], 89 % of control and 91 % of control; under setting [2], 94 % of control and 95 % of control; under setting [3], 95 % of control and 91 % of control.

On to `CC1=NN(c2ccccc2)C(=O)C1N=Nc1ccc(S(=O)(=O)Nc2ncccn2)cc1` (configuration not stated), for which the T/C (dose: 100.0 mg/kg/injection, schedule: Q01DX001 (ip), vehicle: carboxymethylcellulose (CMC)) was 100 % of control; the T/C (dose: 200.0 mg/kg/injection, schedule: Q01DX001 (ip), vehicle: carboxymethylcellulose (CMC)) is 94 % of control; the T/C (dose: 400.0 mg/kg/injection, schedule: Q01DX001 (ip), vehicle: carboxymethylcellulose (CMC)) was 89 % of control.

`CC(=O)c1cccc(NC(=O)Nc2ccccc2)c1`: the T/C reads like this: under setting [4], 94 % of control; under setting [5], 100 % of control; under setting [6], 98 % of control; under setting [7], 96 % of control; (dose: 400.0 mg/kg/injection, schedule: Q01DX009 (ip), vehicle: Klucel (hydroxypropylcellulose) (HPC)) 100 % of control; under setting [8], 97 % of control.

On to `CCOC(=O)C(=Cc1c[nH]c2ccccc12)C(=O)OCC`, for which the T/C was 108 % of control under setting [9]; 96 % of control under setting [10]; 90 % of control under setting [11]; 96 % of control (dose: 200.0 mg/kg/injection, schedule: Q04DX003 (ip), vehicle: saline with Tween-80); 92 % of control (dose: 400.0 mg/kg/injection, schedule: Q01DX009 (ip), vehicle: saline with Tween-80); 96 % of control (dose: 400.0 mg/kg/injection, schedule: Q04DX003 (ip), vehicle: saline with Tween-80).

For `CCCCCCCCCC(=O)N(CCCC)CCCC`, the T/C was 102 % of control (dose: 50.0 mg/kg/injection, schedule: Q01DX009 (ip), vehicle: Klucel (hydroxypropylcellulose) (HPC)); 105 % of control under setting [4]; 95 % of control (dose: 100.0 mg/kg/injection, schedule: Q04DX002 (ip), vehicle: saline); 109 % of control under setting [6]; 101 % of control (dose: 200.0 mg/kg/injection, schedule: Q04DX002 (ip), vehicle: saline); 88 % of control (dose: 400.0 mg/kg/injection, schedule: Q04DX002 (ip), vehicle: saline).

Regarding `O=C(CCCC(=O)N/N=C/c1ccc(Cl)cc1)N/N=C\c1ccc(Cl)cc1`, the T/C (dose: 50.0 mg/kg/injection, schedule: Q01DX001 (ip), vehicle: other) was 102 % of control; the T/C under setting [12] is 91 % of control; the T/C under setting [13] was 91 % of control.

For `Nn1cnc2c(=S)nc[nH]c21`, the T/C is 101 % of control (dose: 42.0 mg/kg/injection, schedule: Q01DX015 (ip), vehicle: other); 101 % of control (dose: 72.0 mg/kg/injection, schedule: Q01DX015 (ip), vehicle: other); 102 % of control (dose: 100.0 mg/kg/injection, schedule: Q01DX001 (ip), vehicle: other); 97 % of control (dose: 177.0 mg/kg/injection, schedule: Q01DX001 (ip), vehicle: other); 102 % of control (dose: 177.0 mg/kg/injection, schedule: Q01DX001 (ip), vehicle: saline); 102 % of control under setting [12]. For the same compound, the T/C reads like this: (dose: 200.0 mg/kg/injection, schedule: Q01DX015 (ip), vehicle: other) 86 % of control; (dose: 266.0 mg/kg/injection, schedule: Q01DX001 (ip), vehicle: other) 115 % of control; (dose: 266.0 mg/kg/injection, schedule: Q01DX001 (ip), vehicle: saline) 101 % of control; under setting [13], 154 % of control and 164 % of control; under setting [3], 104 % of control; (dose: 600.0 mg/kg/injection, schedule: Q01DX001 (ip), vehicle: saline) 167 % of control.

For the compound `CCCNC(=O)Oc1ccc(-c2ccccc2)cc1Cl`, the T/C is 113 % of control (dose: 100.0 mg/kg/injection, schedule: Q04DX002 (ip), vehicle: saline with Tween-80); 100 % of control (dose: 200.0 mg/kg/injection, schedule: Q04DX002 (ip), vehicle: saline with Tween-80); 97 % of control (dose: 400.0 mg/kg/injection, schedule: Q04DX002 (ip), vehicle: saline with Tween-80).

As to `Cc1ccc2nsnc2c1[N+](=O)[O-]`, the T/C is 107 % of control (dose: 100.0 mg/kg/injection, schedule: Q04DX002 (ip), vehicle: Klucel (hydroxypropylcellulose) (HPC)); 118 % of control (dose: 200.0 mg/kg/injection, schedule: Q04DX002 (ip), vehicle: Klucel (hydroxypropylcellulose) (HPC)); 102 % of control (dose: 400.0 mg/kg/injection, schedule: Q04DX002 (ip), vehicle: Klucel (hydroxypropylcellulose) (HPC)).

Take `CCOC(=O)C(C#N)=P(c1ccccc1)(c1ccccc1)c1ccccc1`: the T/C by setting is: under setting [14], 96 % of control; under setting [9], 88 % of control; under setting [11], 96 % of control.

As for `COC(=O)C(CCCCN=Cc1ccccc1O)N=Cc1ccccc1O.[Cu]` (configuration not stated), the T/C is, setting by setting: (dose: 6.25 mg/kg/injection, schedule: Q01DX009 (ip), vehicle: saline with Tween-80) 96 % of control; (dose: 12.5 mg/kg/injection, schedule: Q01DX009 (ip), vehicle: saline with Tween-80) 93 % of control; (dose: 25.0 mg/kg/injection, schedule: Q01DX009 (ip), vehicle: saline with Tween-80) 96 % of control and 98 % of control; under setting [14], 103 % of control; under setting [10], 96 % of control.

Regarding `CC(=O)OC1=CC(=O)C(OC(C)=O)=C(c2c(C)cc(C)c(Br)c2C)C1=O`, the T/C by setting is: (dose: 50.0 mg/kg/injection, schedule: Q01DX001 (ip), vehicle: saline) 91 % of control; under setting [1], 95 % of control; under setting [2], 101 % of control.

For the compound `CC(C)C1=CC23CCC4C(C)(C(N)=O)CCCC4(C)C2CC1C1C(=O)NC(=O)C13` (configuration not stated), the T/C under setting [5] is 97 % of control, the T/C under setting [7] is 95 % of control and the T/C under setting [8] is 92 % of control.

On to `Nc1ccc(OCc2ccc(C(=O)Nc3cccc(S(=O)(=O)F)c3)cc2)c(Cl)c1`, for which the T/C was 100 % of control under setting [5], 108 % of control under setting [7] and 96 % of control under setting [8].
